Data taken from PMC10163008 (Nature Communications, 2023).
“And” between values parts separate entries of the source, which are not always exact repeats. Identical values can stand only once.

How the values were obtained:
[1] = tested on: CHLA-20 cells (ALK R1275Q, parental); experiment: Cell viability assay (Cell Titer-Glo, 120 h); type: cell-based, human; conditions: cell viability after 120 h of treatment
[2] = tested on: CHLA-20 cells with ALK R1275Q/G1202R (CRISPR, in cis); experiment: Cell viability assay (Cell Titer-Glo, 120 h); type: cell-based, human
[3] = tested on: patients with ALK-driven relapsed/refractory neuroblastoma; experiment: Serial ctDNA profiling (FoundationACT / FoundationOne Liquid CDx) and clinical response in the NANT phase 1 lorlatinib trial; conditions: Group 3 (ALK undetectable) patients, all responded
Method: Optional blood sampling was prospectively performed at predefined time points including pretreatment, after courses 2,4,6, and then after every 4th course and at disease progression. Patients <18 years of age were treated across 5 dose levels (cohort A1).
Blood samples for circulating tumor DNA profiling were drawn prior to enrollment, after courses 2, 4, and 6, and then after every 4 courses of treatment for the duration of patient participation in the trial. Forty-six patients were evaluable for this ctDNA study.
16-20 ml of whole blood was drawn from each patient and sent to Foundation Medicine in Streck tubes for ctDNA profiling.
Sequencing data were analyzed for the presence of short variants (single base substitutions and short insertions/deletions), copy number amplifications and homozygous deletions, and detectable gene rearrangements. […]
For most samples, we were able to estimate the ctDNA quantity using the comprehensive tumor fraction (CTF) method, using established computational methods[46],[47]. For samples in which no ALK was detected, we analyzed CTF to determine if any ctDNA was found in the cell-free DNA sequenced. For samples where CTF could not be calculated, MSAF was manually assessed to determine the fraction of ctDNA content[48]. […]

In the case of `C[C@H]1Oc2cc(cnc2N)-c2c(nn(C)c2C#N)CN(C)C(=O)c2ccc(F)cc21` [lorlatinib, (10R)-7-amino-12-fluoro-2,10,16-trimethyl-15-oxo-10,15,16,17-tetrahydro-2H-8,4-(metheno)pyrazolo[4,3-h][2,5,11]-benzoxadiazacyclotetradecine-3-carbonitrile], the IC50 [1] is reported as 15 ± 4 nM, the cell viability ([2]; [lorlatinib] 33, 120 h, exp #1-#9) is reported as 104.185 and 94.5372 and 95.8368 and 98.7284 and 103.246 and 102.304 and 104.304 and 98.5652 and the IC50 ([2]; cell viability after 120 h of treatment) is reported as 318 ± 58 nM. The duration of response [3] was 4 to 48 cycles of therapy.
